Laboratory results from ChEMBL document CHEMBL4699475, “Campafungins: Inhibitors of Candida albicans and Cryptococcus neoformans Hyphal Growth” (2020).
Active and inactive are the calls of the source. The calls are words filed in the database; no cut-off is given here.

Assays:
Cryptococcus neoformans [1] = assay: Effect on cAMP signaling mediated virulence associated melanin production phenotype in Cryptococcus neoformans H99 incubated for 72 hrs in presence of L-DOPA; format: functional
Cryptococcus neoformans [2] = assay: Antimicrobial activity against Cryptococcus neoformans H99 harboring pde1 deletion mutant assessed as reduction in microbial growth after 72 hrs by resazurin staining based liquid serial dilution assay; format: functional, organism-based
Staphylococcus aureus = assay: Antimicrobial activity against Staphylococcus aureus ATCC 43300 assessed as reduction in microbial growth after 24 hrs by resazurin staining based liquid serial dilution assay; format: functional
Aspergillus fumigatus [3] = assay: Antimicrobial activity against Aspergillus fumigatus FSGC A1240 assessed as reduction in microbial growth after 48 hrs by resazurin staining based liquid serial dilution assay; format: functional
Cryptococcus neoformans [4] = assay: Effect on cAMP signaling mediated virulence associated encapsulation phenotype in Cryptococcus neoformans H99 incubated for 72 hrs by India Ink staining based analysis; format: functional
Candida albicans [5] = assay: Inhibition of hyphal extension in Candida albicans SC3514 at 10 ug/ml measured at >48 hrs by microscopic analysis; format: functional, organism-based; settings: dose 10.0 µg/ml, time hrs >48
Cryptococcus neoformans [6] = assay: Antimicrobial activity against Cryptococcus neoformans H99 harboring pka1 deletion mutant assessed as reduction in microbial growth after 72 hrs by resazurin staining based liquid serial dilution assay; format: functional, organism-based
Cryptococcus neoformans [7] = assay: Antimicrobial activity against Cryptococcus neoformans H99 harboring gpa1 deletion mutant assessed as reduction in microbial growth after 72 hrs by resazurin staining based liquid serial dilution assay; format: functional, organism-based
Cryptococcus neoformans [8] = assay: Antimicrobial activity against Cryptococcus neoformans H99 harboring pkr1 deletion mutant assessed as reduction in microbial growth after 72 hrs by resazurin staining based liquid serial dilution assay; format: functional, organism-based
Aspergillus fumigatus [9] = assay: Inhibition of hyphal extension in Aspergillus fumigatus AF293 at 10 ug/ml measured after 48 hrs by microscopic analysis; format: functional, organism-based; settings: dose 10.0 µg/ml
Cryptococcus neoformans [10] = assay: Antimicrobial activity against Cryptococcus neoformans H99 harboring cac1 deletion mutant assessed as reduction in microbial growth after 72 hrs by resazurin staining based liquid serial dilution assay; format: functional, organism-based
Candida tropicalis = assay: Antimicrobial activity against Candida tropicalis ATCC 750 assessed as reduction in microbial growth after 48 hrs by resazurin staining based liquid serial dilution assay; format: functional
[11] = test system: Schizosaccharomyces pombe; assay: Antimicrobial activity against Schizosaccharomyces pombe strain SAK1 assessed as reduction in microbial growth by resazurin staining based CLSI method; format: functional
[12] = test system: Schizosaccharomyces pombe; assay: Antimicrobial activity against Schizosaccharomyces pombe strain SAK1 harboring MJ-1682 efflux mutant assessed as reduction in microbial growth by resazurin staining based CLSI method; format: functional
Candida albicans [13] = assay: Antimicrobial activity against Candida albicans ATCC 10231 assessed as reduction in microbial growth after 48 hrs by resazurin staining based liquid serial dilution assay; format: functional
Cryptococcus neoformans [14] = assay: Antimicrobial activity against Cryptococcus neoformans H99 assessed as reduction in microbial growth after 72 hrs by resazurin staining based liquid serial dilution assay; format: functional
Candida albicans [15] = assay: Inhibition of hyphal extension in Candida albicans SC3514 at 10 ug/ml measured after 24 to 48 hrs by microscopic analysis; format: functional, organism-based; settings: dose 10.0 µg/ml, time 24-48 hrs
Nakaseomyces glabratus = assay: Antimicrobial activity against Candida glabrata ATCC 2001 assessed as reduction in microbial growth after 48 hrs by resazurin staining based liquid serial dilution assay; format: functional
Aspergillus fumigatus [16] = assay: Antimicrobial activity against Aspergillus fumigatus AF293 assessed as reduction in microbial growth after 48 hrs by resazurin staining based liquid serial dilution assay; format: functional

Row | MIC (Staphylococcus aureus) | MIC (Aspergillus fumigatus [3]) | MIC (Candida tropicalis) | MIC (Candida albicans [13]) | MIC (Cryptococcus neoformans [14]) | MIC (Nakaseomyces glabratus) | SMILES | Activity (Cryptococcus neoformans [1]) | Activity (Cryptococcus neoformans [2]) | Activity (Cryptococcus neoformans [4]) | inhibition (Candida albicans [5]) | Activity (Cryptococcus neoformans [6]) | Activity (Cryptococcus neoformans [7]) | Activity (Cryptococcus neoformans [8]) | inhibition (Aspergillus fumigatus [9]) | Activity (Cryptococcus neoformans [10]) | MIC [11] | MIC [12] | inhibition (Candida albicans [15]) | MIC (Aspergillus fumigatus [16])
1 | 32 µg/mL | 64 µg/mL | 64 µg/mL | 128 µg/mL | 4 µg/mL | > 128 µg/mL | C/C=C(\C)[C@]1(O)C=C[C@@H]2CC(C)=CC[C@H]2[C@]1(O)/C=C/C=C/C=C\C=C\C(=O)O |  |  |  |  |  |  |  |  |  |  |  |  | 
2 |  | 0.74 µg/mL | 0.36 µg/mL | 0.36 µg/mL | 0.36 µg/mL | 0.18 µg/mL | C[C@@H]1[C@H](O)[C@@H](C)/C=C/C=C/C=C/C=C/C=C/C=C/C=C/[C@H](O[C@@H]2O[C@H](C)[C@@H](O)[C@H](N)[C@@H]2O)C[C@@H]2O[C@](O)(C[C@@H](O)C[C@@H](O)[C@H](O)CC[C@@H](O)C[C@@H](O)CC(=O)O[C@H]1C)C[C@H](O)[C@H]2C(=O)O [AMPHOTERICIN B] |  |  |  |  |  |  |  |  |  |  |  |  | 
3 | 32 µg/mL | 64 µg/mL | 64 µg/mL | 128 µg/mL | 4 µg/mL | > 128 µg/mL | C/C=C(\C)[C@@]1(O)[C@@H](/C=C/C=C/C=C/C=C/C(=O)O)[C@@H]2CC=C(C)C[C@H]2[C@@H]2O[C@@H]21 |  |  |  |  |  |  |  |  |  |  |  |  | 
4 | 32 µg/mL | 64 µg/mL | 64 µg/mL | > 128 µg/mL | 8 µg/mL | > 128 µg/mL | C/C=C(\C)[C@]1(O)C=C[C@@H]2CC(C)=CC[C@H]2[C@]1(O)/C=C/C=C/C=C\C=C\C=C\C(=O)O |  |  |  |  |  |  |  |  |  |  |  |  | 

Row | SMILES | MIC (Staphylococcus aureus) | MIC (Aspergillus fumigatus [3]) | MIC (Candida tropicalis) | MIC (Candida albicans [13]) | MIC (Cryptococcus neoformans [14]) | MIC (Nakaseomyces glabratus) | Activity (Cryptococcus neoformans [1]) | Activity (Cryptococcus neoformans [2]) | Activity (Cryptococcus neoformans [4]) | inhibition (Candida albicans [5]) | Activity (Cryptococcus neoformans [6]) | Activity (Cryptococcus neoformans [7]) | Activity (Cryptococcus neoformans [8]) | inhibition (Aspergillus fumigatus [9]) | Activity (Cryptococcus neoformans [10]) | MIC [11] | MIC [12] | inhibition (Candida albicans [15]) | MIC (Aspergillus fumigatus [16])
5 | C\C=C(/C=C/C=C/C=C/C=C/C(=O)O)[C@]1(O)[C@H]2CC=C(C)C[C@@H]2C=C[C@@]1(C)O | 64 µg/mL | 64 µg/mL | 64 µg/mL | 128 µg/mL | 8 µg/mL | > 128 µg/mL | inactive | Active | inactive | inactive | Active | Active | Active | Active | Active | 10 µg/mL | 2 µg/mL | Active | 38 µg/mL
